From the NIST ThermoML archive (doi:10.1016/j.jct.2005.03.012)
± gives the expanded uncertainty stated by the source.

Assay: excess molar enthalpy (molar enthalpy of mixing); xn = mol fraction of the nth substance listed
Conditions: Liquid

CO [methanol] + O
Conditions | excess molar enthalpy [kcal/mol]
355.11 K, 5000 kPa, x1 = 0.3 | -0.0957 ± 0.00359
373.15 K, 5000 kPa, x1 = 0.1 | -0.0386 ± 0.00194
373.15 K, 5000 kPa, x1 = 0.2 | -0.053 ± 0.00239
373.15 K, 5000 kPa, x1 = 0.3 | -0.0554 ± 0.00239
373.15 K, 5000 kPa, x1 = 0.4 | -0.0527 ± 0.00237
373.15 K, 5000 kPa, x1 = 0.5 | -0.0495 ± 0.00227
373.15 K, 5000 kPa, x1 = 0.6 | -0.0465 ± 0.00217
373.15 K, 5000 kPa, x1 = 0.7 | -0.0425 ± 0.00206
373.15 K, 5000 kPa, x1 = 0.8 | -0.0361 ± 0.00186
373.15 K, 5000 kPa, x1 = 0.9 | -0.0233 ± 0.00155
373.82 K, 5000 kPa, x1 = 0.9 | -0.0227 ± 0.00153
374.46 K, 5000 kPa, x1 = 0.8 | -0.0342 ± 0.00179
374.83 K, 5000 kPa, x1 = 0.7 | -0.0394 ± 0.00196
375.03 K, 5000 kPa, x1 = 0.1 | -0.0377 ± 0.00191
375.03 K, 5000 kPa, x1 = 0.2 | -0.0491 ± 0.00227
375.03 K, 5000 kPa, x1 = 0.3 | -0.0508 ± 0.00232
375.03 K, 5000 kPa, x1 = 0.4 | -0.0479 ± 0.00222
375.03 K, 5000 kPa, x1 = 0.5 | -0.045 ± 0.00213
375.03 K, 5000 kPa, x1 = 0.6 | -0.0422 ± 0.00206
375.03 K, 5000 kPa, x1 = 0.7 | -0.0388 ± 0.00194
375.03 K, 5000 kPa, x1 = 0.8 | -0.0333 ± 0.00177
375.03 K, 5000 kPa, x1 = 0.9 | -0.0214 ± 0.00143
375.05 K, 5000 kPa, x1 = 0.1 | -0.0364 ± 0.00186
375.09 K, 5000 kPa, x1 = 0.6 | -0.0424 ± 0.00206
375.26 K, 5000 kPa, x1 = 0.5 | -0.0447 ± 0.00213
375.35 K, 5000 kPa, x1 = 0.9 | -0.0212 ± 0.00141
375.45 K, 5000 kPa, x1 = 0.4 | -0.0473 ± 0.0022
375.66 K, 5000 kPa, x1 = 0.3 | -0.0498 ± 0.00229
375.68 K, 5000 kPa, x1 = 0.2 | -0.0484 ± 0.00225
376.12 K, 5000 kPa, x1 = 0.8 | -0.0318 ± 0.00172
376.69 K, 5000 kPa, x1 = 0.7 | -0.0358 ± 0.00184
376.94 K, 5000 kPa, x1 = 0.6 | -0.0382 ± 0.00194
376.98 K, 5000 kPa, x1 = 0.1 | -0.034 ± 0.00179
377.07 K, 5000 kPa, x1 = 0.5 | -0.0403 ± 0.00198
377.26 K, 5000 kPa, x1 = 0.4 | -0.0427 ± 0.00206
377.41 K, 5000 kPa, x1 = 0.3 | -0.0455 ± 0.00215
377.47 K, 5000 kPa, x1 = 0.2 | -0.0447 ± 0.00213
420.87 K, 10000 kPa, x1 = 0.4 | 0.0499 ± 0.00229
420.97 K, 2000 kPa, x1 = 0.4 | 0.0467 ± 0.0022
420.98 K, 5000 kPa, x1 = 0.4 | 0.0483 ± 0.00225
420.98 K, 5000 kPa, x1 = 0.5 | 0.051 ± 0.00232
421.12 K, 10000 kPa, x1 = 0.6 | 0.0491 ± 0.00227
421.18 K, 5000 kPa, x1 = 0.6 | 0.048 ± 0.00222
421.19 K, 2000 kPa, x1 = 0.6 | 0.0457 ± 0.00215
421.39 K, 5000 kPa, x1 = 0.3 | 0.0384 ± 0.00194
421.51 K, 5000 kPa, x1 = 0.7 | 0.0404 ± 0.00198
421.69 K, 10000 kPa, x1 = 0.2 | 0.0282 ± 0.0016
421.8 K, 2000 kPa, x1 = 0.2 | 0.0262 ± 0.00155
421.84 K, 5000 kPa, x1 = 0.2 | 0.0269 ± 0.00158
421.92 K, 10000 kPa, x1 = 0.8 | 0.0294 ± 0.00165
421.97 K, 2000 kPa, x1 = 0.8 | 0.0259 ± 0.00155
421.98 K, 5000 kPa, x1 = 0.8 | 0.0283 ± 0.00163
422.47 K, 5000 kPa, x1 = 0.9 | 0.0141 ± 0.0012
422.53 K, 5000 kPa, x1 = 0.1 | 0.0114 ± 0.00115
422.8 K, 10000 kPa, x1 = 0.4 | 0.0539 ± 0.00239
422.84 K, 5000 kPa, x1 = 0.4 | 0.0521 ± 0.00237
422.84 K, 5000 kPa, x1 = 0.5 | 0.0547 ± 0.00239
422.86 K, 2000 kPa, x1 = 0.4 | 0.05 ± 0.00229
423.02 K, 10000 kPa, x1 = 0.6 | 0.0528 ± 0.00237
423.08 K, 2000 kPa, x1 = 0.6 | 0.049 ± 0.00227
423.12 K, 5000 kPa, x1 = 0.6 | 0.0512 ± 0.00232
423.14 K, 5000 kPa, x1 = 0.7 | 0.0432 ± 0.00208
423.15 K, 2000 kPa, x1 = 0.2 | 0.0278 ± 0.0016
423.15 K, 2000 kPa, x1 = 0.4 | 0.0501 ± 0.00229
423.15 K, 2000 kPa, x1 = 0.6 | 0.0484 ± 0.00225
423.15 K, 2000 kPa, x1 = 0.8 | 0.027 ± 0.00158
423.15 K, 5000 kPa, x1 = 0.1 | 0.0118 ± 0.00124
423.15 K, 5000 kPa, x1 = 0.2 | 0.0287 ± 0.00163
423.15 K, 5000 kPa, x1 = 0.3 | 0.0414 ± 0.00203
423.15 K, 5000 kPa, x1 = 0.4 | 0.0522 ± 0.00237
423.15 K, 5000 kPa, x1 = 0.5 | 0.0549 ± 0.00239
423.15 K, 5000 kPa, x1 = 0.6 | 0.0514 ± 0.00234
423.15 K, 5000 kPa, x1 = 0.7 | 0.0421 ± 0.00206
423.15 K, 5000 kPa, x1 = 0.8 | 0.0294 ± 0.00165
423.15 K, 5000 kPa, x1 = 0.9 | 0.0143 ± 0.00127
423.15 K, 10000 kPa, x1 = 0.2 | 0.0302 ± 0.00167
423.15 K, 10000 kPa, x1 = 0.4 | 0.0538 ± 0.00239
423.15 K, 10000 kPa, x1 = 0.6 | 0.0531 ± 0.00239
423.15 K, 10000 kPa, x1 = 0.8 | 0.0302 ± 0.00167
423.37 K, 5000 kPa, x1 = 0.3 | 0.0416 ± 0.00203
423.39 K, 5000 kPa, x1 = 0.8 | 0.0299 ± 0.00167
423.49 K, 2000 kPa, x1 = 0.8 | 0.0275 ± 0.0016
423.62 K, 10000 kPa, x1 = 0.8 | 0.0305 ± 0.0017
423.64 K, 10000 kPa, x1 = 0.2 | 0.0315 ± 0.00172
423.68 K, 5000 kPa, x1 = 0.2 | 0.0299 ± 0.00167
423.69 K, 2000 kPa, x1 = 0.2 | 0.0288 ± 0.00163
423.76 K, 5000 kPa, x1 = 0.9 | 0.0151 ± 0.00124
424.45 K, 5000 kPa, x1 = 0.1 | 0.0132 ± 0.00122
424.96 K, 5000 kPa, x1 = 0.1 | 0.0136 ± 0.00131
424.96 K, 5000 kPa, x1 = 0.2 | 0.0315 ± 0.00172
424.96 K, 5000 kPa, x1 = 0.3 | 0.0442 ± 0.0021
424.96 K, 5000 kPa, x1 = 0.4 | 0.056 ± 0.00239
424.96 K, 5000 kPa, x1 = 0.5 | 0.0586 ± 0.00263
424.96 K, 5000 kPa, x1 = 0.6 | 0.0565 ± 0.00239
424.96 K, 5000 kPa, x1 = 0.7 | 0.0451 ± 0.00213
424.96 K, 5000 kPa, x1 = 0.8 | 0.0318 ± 0.00172
424.96 K, 5000 kPa, x1 = 0.9 | 0.016 ± 0.00131
425 K, 2000 kPa, x1 = 0.2 | 0.0306 ± 0.0017
425 K, 2000 kPa, x1 = 0.4 | 0.054 ± 0.00239
425 K, 2000 kPa, x1 = 0.6 | 0.0545 ± 0.00239
425 K, 2000 kPa, x1 = 0.8 | 0.0286 ± 0.00163
425.1 K, 10000 kPa, x1 = 0.2 | 0.0334 ± 0.00177
425.1 K, 10000 kPa, x1 = 0.4 | 0.0578 ± 0.00263
425.1 K, 10000 kPa, x1 = 0.6 | 0.0584 ± 0.00263
